Assays:
spleen cells = experiment: Cytotoxicity against spleen cells (propidium iodide); conditions: Mus musculus, 24 h
Procedure: To carry out the suspension preparation of spleen cells, BALB/c mice were euthanized, and an incision was made to remove the spleen. The spleens were macerated using the end of the plungers from a 1 mL syringe in a 70 μm strainer placed in a Petri dish containing RPMI medium. […] After incubation for 4 min at room temperature, the cells were washed with RPMI medium. Subsequently, samples from three animals were pooled and the cell suspension was passed through a 40 μm strainer. Cells were counted in a Neubauer chamber and splenocytes were plated at a concentration of 5 x 10^5 cells per well in a 96-well culture plate. […] Moreover, spleen cells were also cultured just with medium (free of compounds or vehicle) or with DMSO 0.1%. […] After, the propidium iodide incorporation was performed according to the instructions of the Propidium Iodide Kit (Sigma, Copenhagen, Denmark). The splenocytes were analyzed in a FACS Canto II flow cytometer. The data files were saved using FACS Diva software and data analysis was done using Flow Jo software. […] Data obtained from experiments were expressed as the mean ± standard error of the mean (S.E.M.) of spleen died cells and statistical differences between the treated and the vehicle groups of experiments were evaluated by ANOVA and Dunnett hoc tests.

[1] = test system: L. major amastigote LV39 substrain; experiment: In vitro activity against intramacrophage amastigotes, LV39; type: cell-based; conditions: Leishmania major
Procedure: Briefly, female BALB/c mice (6 to 8 weeks old) received 1 mL sterile of 3% sodium thioglycolate by intraperitoneal route (i.p.) and were euthanized after 4 days. The intraperitoneal lavage was collected from the peritoneal cavity of mice using sterile PBS and cells were counted in a hemocytometer. Peritoneal adherent cells (macrophages) were plated at a concentration of 2 x 10^5 cells per well in 24-well culture plates containing glass coverslips. Subsequently, L. major promastigotes (harvested after the third passage) were added at a concentration of 2 x 10^6 parasites per well, aiming to infect the macrophages. […] After 24 hours in an incubator at 37 °C and 5% CO2, the coverslips were washed with PBS and stained with Giemsa-May Grünwald. The number of amastigotes in 100 macrophages was determined by counting using optical microscope (100x objective). Furthermore, the cell culture supernatant was also collected for nitrite measurement using the Griess reaction, an indirect way of determining the concentration of nitric oxide in the supernatant of infected macrophages from the experimental groups. The results obtained were expressed as the mean ± S.E.M. of the number of amastigotes or nitrite concentration from duplicate cultures of representative assays, with the data analyzed by ANOVA and Dunnett hoc tests, considering a significance level of p < 0.05. In addition, the linear regression analysis from the Kc values at employed concentrations was used to determine the IC50.

PAMPA-GIT permeability = experiment: PAMPA-GIT permeability
Source text: The parallel artificial membrane permeability assay uses 96-well plate in a “sandwich” type system, where one plate overlaps the other (PAMPA). […] The lipid mixture that impregnates the PVDF filter has a different constitution for the permeability tests for the blood-brain barrier (Brain lipid from pig extract in dodecane) and gastro-intestinal tract (L-α soy phosphatidylcholine in dodecane). In the PAMPA BBB and TGI assays, the optical density values obtained in the reading at each selected wavelength, for each of the compounds were analyzed in comparison with the values of several controls. In the case of the BBB, these values were used to elaborate an equation and determine the permeability coefficient (Pe), using a previously elaborated spreadsheet, and, for the TGI, these values were used to determine the absorbed fraction (Fa%), both using the Excel® program.

Microsomal metabolism = type: in vitro ADME; conditions: rat liver microsomes
Procedure: The study of the microsomal metabolism of the compounds was evaluated by placing 1 mg/ml rat liver microsome in a microcentrifuge tube, in the presence of a NADPH generator system (1 mM NADP^+, 1.5 mM MgCl2, 3.5 mM glucose-6-phosphate and 0.5 U/mL glucose-6-phosphate dehydrogenase) and phosphate buffer pH 7.4 in sufficient quantity for 250 μL. After 15 minutes of pre-incubation at 37°C in a water bath, the enzymatic reactions were started by adding 2 μL of a stock solution 1 mM from one of the prototypes (500 μL 20% DMSO 80% CH3CN), so that a final concentration of 5 μM was reached (0.2% DMSO, 0.8% acetonitrile).
Then, the samples were again incubated at 37°C under agitation for predetermined and fixed periods (0, 15, 30, 45 and 60 minutes). At the end of the incubation period 500 μL of cold methanol and 500 μL of cold acetonitrile containing 5 μM of methyl 1,1’biphenyl-4-carboxylate 5 μM (internal standard) were added to the wells to stop the reaction and the samples were homogenized and kept in an ice bath to accelerate protein precipitation. The mixture was centrifuged at 24500 x g for 15 minutes at 4°C (Universal centrifuge 320R Hettich®). Finally, the supernatant (1 mL) was filtrated and placed in vials to be analyzed by HPLC-PDA, Shimadzu—LC20AD, Kromasil C-18 column (4.6 mm x 250 mm, 5 μm), SPD M20A diode array detector, flow 1 mL/min, mobile phase acetonitrile: water 1:1 (v/v) for LASSBio-1491 and acetonitrile: water 60:40 (v/v) for LASSBio-1736, 20 minutes at 254 nm wavelength. Then, the microsomal half-life and clearance were calculated.

L. major LV39 = experiment: In vivo activity against Leishmania major LV39 substrain; set-up: species or system BALB/c mice
Procedure: Thus, 6-week-old female BALB/c mice weighing approximately 20 g were used. […] Briefly, ketamine (80mg/kg) and xylazine (8 mg/kg) were simultaneously used to anesthetize the mice by intraperitoneal injection. The promastigotes of L. major LV39 substrain in the stationary phase, harvested after the third passage (obtained from parasites frozen), were inoculated subcutaneously at a concentration of 1x 10^5 parasites in the right ear of mice. […] The size of the lesions was measured using a pachymeter. Thiopental (150 mg/kg, i.p.) was used to euthanize the mice and the quantitative limiting-dilution assay was used to determine the parasite burden of infected ears and draining lymph nodes. The results obtained from experiments were expressed as the mean ± S.E.M. with the data analyzed (size of the lesions or parasite burden) by ANOVA and Dunnett hoc tests, considering a significance level of p < 0.05.

[2] = LASSBio-1491 10 μmol/Kg/day, glucantime 30 μmol/Kg/day x 28 days, i.p.

- IC50 ([1]; Macrophage, amastigote LV39 in macrophages, 24 h): 8.3 ± 0.3 µM
- Fa experimental (PAMPA-GIT permeability; GIT-PAMPA, absorbed fraction): 78.8%
- Papp (PAMPA-GIT permeability; PAMPA): 4.08 ×10⁻⁶ cm/s
- half-life at 5 μM (Microsomal metabolism; pH 7.4, with co-factor): 2.68 h
- microsomal CLint at 5 μM (Microsomal metabolism; pH 7.4, with co-factor, Volume x (0,693/t1/2)): 1.07 µL/min/mg
- Metabolism rate with co-factor (Microsomal metabolism; with NADPH regenerating system): 25.46%
- Elimination rate constant (k) (Microsomal metabolism; with co-factor): 0.0043
- Clapp (Microsomal metabolism; with co-factor, scaled to liver and rat weight): 0.166 mL/min/kg
SMILES: O=C(N/N=C/c1ccc([N+](=O)[O-])o1)NNC(=O)c1ccc(Cl)cc1 [LASSBio-1491]
- IC50 (spleen cells): > 100 µM
- Emax ([1]; amastigote LV39, read-out: Maximum effect (% ± S.E.M.)): 60.2 ± 1.9%
- Classification (PAMPA-GIT permeability; GIT-PAMPA): High (high intestinal permeability (70–100%))
- lesion size (L. major LV39; [2]): reduced lesion size only between days 7 and 17
- parasite load in draining lymph node (L. major LV39; [2]): decreased parasite load
- parasite load in infected ear (L. major LV39; [2]): decreased parasite load
- times more efficient than glucantime (L. major LV39; similar effect at a dose three times lower): 3 times

Reference: PMC9170106, “Pre-clinical evaluation of LASSBio-1491: From in vitro pharmacokinetic study to in vivo leishmanicidal activity” (PLoS ONE, 2022)
